Results: a compilation of properties of binary mixtures (doi:10.1007/s10953-019-00842-w)

Assay: xn = mol fraction of the nth substance listed
Conditions: 101 kPa

## CC[n+]1ccn(C)c1.O=S(=O)([O-])C(F)(F)F + CC1COC(=O)O1
288.15 K, x1 = 0.0999
  viscosity: 6.25 mPa·s
288.15 K, x1 = 0.1999
  viscosity: 8.7 mPa·s
288.15 K, x1 = 0.601
  viscosity: 24.4 mPa·s
288.15 K, x1 = 0.6987
  viscosity: 30.7 mPa·s
288.15 K, x1 = 0.8004
  viscosity: 39.1 mPa·s
288.15 K, x1 = 0.8998
  viscosity: 46.9 mPa·s
288.15 K, x1 = 1
  viscosity: 59.2 mPa·s
293.15 K, x1 = 0.1999
  viscosity: 7.33 mPa·s
293.15 K, x1 = 0.3005
  viscosity: 9.18 mPa·s
293.15 K, x1 = 0.3998
  viscosity: 12.2 mPa·s
293.15 K, x1 = 0.5001
  viscosity: 15.69 mPa·s
293.15 K, x1 = 0.601
  viscosity: 20.5 mPa·s
293.15 K, x1 = 0.6987
  viscosity: 25.6 mPa·s
293.15 K, x1 = 0.8998
  viscosity: 38.8 mPa·s
293.15 K, x1 = 1
  viscosity: 48.6 mPa·s
298.15 K, x1 = 0.0999
  viscosity: 4.53 mPa·s
298.15 K, x1 = 0.1999
  viscosity: 6.2 mPa·s
298.15 K, x1 = 0.3005
  viscosity: 7.76 mPa·s
298.15 K, x1 = 0.3998
  viscosity: 10.37 mPa·s
298.15 K, x1 = 0.5001
  viscosity: 13.37 mPa·s
298.15 K, x1 = 0.601
  viscosity: 17.6 mPa·s
298.15 K, x1 = 0.6987
  viscosity: 21.7 mPa·s
303.15 K, x1 = 0.1999
  viscosity: 5.31 mPa·s
303.15 K, x1 = 0.3005
  viscosity: 6.65 mPa·s
303.15 K, x1 = 0.5001
  viscosity: 11.43 mPa·s
303.15 K, x1 = 0.601
  viscosity: 15.01 mPa·s
303.15 K, x1 = 0.8004
  viscosity: 23.1 mPa·s
303.15 K, x1 = 0.8998
  viscosity: 27.6 mPa·s
308.15 K, x1 = 0.0999
  viscosity: 3.4 mPa·s
308.15 K, x1 = 0.1999
  viscosity: 4.57 mPa·s
308.15 K, x1 = 0.3005
  viscosity: 5.77 mPa·s
308.15 K, x1 = 0.3998
  viscosity: 7.65 mPa·s
308.15 K, x1 = 0.601
  viscosity: 12.99 mPa·s
308.15 K, x1 = 0.6987
  viscosity: 16.02 mPa·s
308.15 K, x1 = 0.8004
  viscosity: 19.9 mPa·s
308.15 K, x1 = 0.8998
  viscosity: 23.6 mPa·s
308.15 K, x1 = 1
  viscosity: 29 mPa·s
313.15 K, x1 = 0.0999
  viscosity: 3.03 mPa·s
313.15 K, x1 = 0.1999
  viscosity: 4.01 mPa·s
313.15 K, x1 = 0.3005
  viscosity: 5.07 mPa·s
313.15 K, x1 = 0.3998
  viscosity: 6.67 mPa·s
313.15 K, x1 = 0.5001
  viscosity: 8.69 mPa·s
313.15 K, x1 = 0.601
  viscosity: 11.33 mPa·s
313.15 K, x1 = 0.6987
  viscosity: 13.95 mPa·s
313.15 K, x1 = 0.8004
  viscosity: 17.2 mPa·s
318.15 K, x1 = 0.0999
  viscosity: 2.7 mPa·s
318.15 K, x1 = 0.601
  viscosity: 9.92 mPa·s
318.15 K, x1 = 0.6987
  viscosity: 12.22 mPa·s
318.15 K, x1 = 0.8004
  viscosity: 15.08 mPa·s
318.15 K, x1 = 1
  viscosity: 21.5 mPa·s
323.15 K, x1 = 0.0999
  viscosity: 2.42 mPa·s
323.15 K, x1 = 0.1999
  viscosity: 3.13 mPa·s
323.15 K, x1 = 0.3005
  viscosity: 3.94 mPa·s
323.15 K, x1 = 0.3998
  viscosity: 5.12 mPa·s
323.15 K, x1 = 0.5001
  viscosity: 6.8 mPa·s
323.15 K, x1 = 0.601
  viscosity: 8.79 mPa·s
323.15 K, x1 = 0.8004
  viscosity: 13.15 mPa·s
323.15 K, x1 = 1
  viscosity: 18.6 mPa·s
328.15 K, x1 = 0.0999
  viscosity: 2.17 mPa·s
328.15 K, x1 = 0.6987
  viscosity: 9.52 mPa·s
328.15 K, x1 = 0.8004
  viscosity: 11.61 mPa·s
328.15 K, x1 = 0.8998
  viscosity: 13.62 mPa·s
328.15 K, x1 = 1
  viscosity: 16.5 mPa·s
333.15 K, x1 = 0.0999
  viscosity: 2.01 mPa·s
333.15 K, x1 = 0.1999
  viscosity: 2.52 mPa·s
333.15 K, x1 = 0.3998
  viscosity: 4.07 mPa·s
333.15 K, x1 = 0.5001
  viscosity: 5.53 mPa·s
333.15 K, x1 = 0.601
  viscosity: 6.99 mPa·s
333.15 K, x1 = 0.8998
  viscosity: 12.12 mPa·s
333.15 K, x1 = 1
  viscosity: 14.61 mPa·s
338.15 K, x1 = 0.0999
  viscosity: 1.84 mPa·s
338.15 K, x1 = 0.1999
  viscosity: 2.28 mPa·s
338.15 K, x1 = 0.3005
  viscosity: 2.83 mPa·s
338.15 K, x1 = 0.3998
  viscosity: 3.65 mPa·s
338.15 K, x1 = 0.5001
  viscosity: 4.99 mPa·s
338.15 K, x1 = 0.6987
  viscosity: 7.59 mPa·s
338.15 K, x1 = 0.8998
  viscosity: 10.74 mPa·s
338.15 K, x1 = 1
  viscosity: 13.02 mPa·s
343.15 K, x1 = 0.1999
  viscosity: 2.14 mPa·s
343.15 K, x1 = 0.3005
  viscosity: 2.6 mPa·s
343.15 K, x1 = 0.5001
  viscosity: 4.51 mPa·s
343.15 K, x1 = 0.601
  viscosity: 5.75 mPa·s
343.15 K, x1 = 0.6987
  viscosity: 6.92 mPa·s
343.15 K, x1 = 0.8004
  viscosity: 8.33 mPa·s
343.15 K, x1 = 0.8998
  viscosity: 9.66 mPa·s
343.15 K, x1 = 1
  viscosity: 11.52 mPa·s
348.15 K, x1 = 0.0999
  viscosity: 1.611 mPa·s
348.15 K, x1 = 0.1999
  viscosity: 1.97 mPa·s
348.15 K, x1 = 0.3005
  viscosity: 2.41 mPa·s
348.15 K, x1 = 0.3998
  viscosity: 3.14 mPa·s
348.15 K, x1 = 0.5001
  viscosity: 4.14 mPa·s
348.15 K, x1 = 0.601
  viscosity: 5.26 mPa·s
348.15 K, x1 = 0.6987
  viscosity: 6.33 mPa·s
348.15 K, x1 = 0.8004
  viscosity: 7.61 mPa·s
348.15 K, x1 = 0.8998
  viscosity: 8.9 mPa·s
348.15 K, x1 = 1
  viscosity: 10.29 mPa·s
353.15 K, x1 = 0.0999
  viscosity: 1.57 mPa·s
353.15 K, x1 = 0.1999
  viscosity: 1.89 mPa·s
353.15 K, x1 = 0.3998
  viscosity: 2.94 mPa·s
353.15 K, x1 = 0.5001
  viscosity: 3.9 mPa·s
353.15 K, x1 = 0.601
  viscosity: 4.9 mPa·s
353.15 K, x1 = 0.6987
  viscosity: 5.92 mPa·s
353.15 K, x1 = 0.8004
  viscosity: 7.17 mPa·s

## CC1COC(=O)O1 (stereo not given) + CC[n+]1ccn(C)c1.O=S(=O)([O-])C(F)(F)F
288.15 K, x2 = 0
  viscosity: 3.53 mPa·s
298.15 K, x2 = 0
  viscosity: 2.5 mPa·s
303.15 K, x2 = 0
  viscosity: 2.2 mPa·s
308.15 K, x2 = 0
  viscosity: 1.97 mPa·s
313.15 K, x2 = 0
  viscosity: 1.79 mPa·s
318.15 K, x2 = 0
  viscosity: 1.65 mPa·s
323.15 K, x2 = 0
  viscosity: 1.538 mPa·s
328.15 K, x2 = 0
  viscosity: 1.451 mPa·s
333.15 K, x2 = 0
  viscosity: 1.373 mPa·s
338.15 K, x2 = 0
  viscosity: 1.307 mPa·s
348.15 K, x2 = 0
  viscosity: 1.201 mPa·s
353.15 K, x2 = 0
  viscosity: 1.162 mPa·s
